The data set is described as follows: Single dose intravenous toxicity study (hematology, pathology) in ICR mice. It is filed as in vivo. Particulars: ICR mice male and female, 1 MBq/mouse. On the procedure:
Toxicity studies were performed using ^211At-AAMT-O-Me-L, which appeared to have the highest safety profile based on pharmacokinetic results. Labeled material was administered to ICR mice (male and female) at a dose of 1 MBq/mouse with a clear therapeutic effect, and samples were collected the day after administration and 5, 14, and 28 days later for blood and pathological examination.
Development of LAT1-selective nuclear medicine therapeutics
Kazuko Kaneda-Nakashima 1, 2*, Yoshifumi Shirakami 2, Kentaro Hisada 1, Sifan Feng 1, Yuichiro Kadonaga 2, Kazuhiro Ooe 2, Tadashi Watabe 3, Yoshiyuki Manabe 2, 4, Atsushi Shimoyama 2, 4, Masashi Murakami 2, Atsushi Toyoshima 2, Hiromitsu Haba 5, Yoshikatsu Kanai 6, Koichi Fukase 2, 4 […]
S1. Hematological analysis
S1.1. Animal preparation and administration of 211At-AAMT-O-Me-L
This study was conducted in compliance with the Animal Experiment […]
(Hamamatsu, Japan), respectively. […] General condition and body weight were monitored. […]
After the prescribed observation time, blood was collected under anesthesia and the animals were euthanized. […] Red blood cell count (RBC), hemoglobin concentration (Hb), hematocrit (Ht), white blood cell count (WBC), platelet count (platelet), lymphocytes (%Lymph), monocytes (%Mon), and granulocytes (%Gra) were calculated (Supplementary Table S2). […]

SMILES strings stand for the structures.

Regarding `COc1ccc(C[C@](C)(N)C(=O)O)cc1[211At]` [^211At-AAMT-O-Me-L, (S)-2-amino-3-(3-(astato-^211At)-4-methoxyphenyl)-2-methylpropanic acid], the “Toxicity findings (blood and pathological examination)” value (day after administration) was “no effects were observed”; the “Toxicity findings (blood and pathological examination)” value (five days after administration, subsequently cured) was “hematopoietic disorders originating from radiation exposure were observed”.

For the origin of these results see paper PMC11594329, “Development of LAT1-Selective Nuclear Medicine Therapeutics Using Astatine-211” (International Journal of Molecular Sciences, 2024).
